# From patent US20180028622A1, “TREATMENT OF OSTEOPOROSIS” (Entera Bio Ltd., priority 2015, published 2018)
# Like-named read-outs stand apart in the source and are kept apart here.
# Columns and labels:
# [1] = Open label pharmacokinetic study of oral teriparatide tablet, two visits; assay type: in vivo, human; conditions: for Tmax: human, plasma, po, 0.75 mg; for Tmax / Cmax after 1st administration / Cmax after 2nd administration: oral tablet 0.75 mg teriparatide with SNAC and SBTI
# Description: An open label comparative pharmacokinetic study was performed in healthy volunteers over the course of 3 months. Each volunteer received—in each of two visits—the same oral tablet containing 0.75 mg of teriparatide, a recombinant form of parathyroid hormone (1-34).
# The formulation was composed of teriparatide (0.75 mg), SNAC (sodium 8-N-(2-hydroxybenzoyl)aminocaprylate), soybean trypsin inhibitor (SBTI) and a small amount of magnesium stearate.
# Tablets were administered in the morning after an 8-hour overnight fast and immediately followed by 150 ml of water. At each visit a standard meal was provided 3 hours after drug administration. […] There was a two weeks period between the visits.
# (§1) To determine parathyroid hormone(1-34) (PTH(1-34)) concentrations, blood samples (4 ml each) were drawn via an indwelling catheter from the forearm vein at predetermined time points during each visit. The cannula was flushed with 1.5 ml normal saline after each sampling. In addition, to avoid sample dilution, 1 ml of blood was drawn and discarded before the next sample. The blood samples were taken at following times: baseline (predose), 10 minutes, 15 minutes, 20 minutes, 30 minutes, 45 minutes, 60 minutes, 75 minutes, 90 minutes, 105 minutes, 2 hours, 3 hours, 4 hours and 5 hours post-administration. Each blood sample was collected into a single tube containing EDTA (ethylenediaminetetraacetic acid) and placed on ice. Within 15 minutes of blood collection, samples were centrifuged for 10 minutes at 4° C. (2500 rotations per minute) and the plasma was separated and divided into two or three aliquots. Each aliquot was transferred into appropriately labeled polypropylene tubes and stored at approximately −20° C. pending analysis. PTH(1-34) levels were measured using an IDS-iSYS automated assay for the measurement of intact PTH(1-34) in human plasma or serum.
# [2] = Phase I clinical study of oral teriparatide formulations vs subcutaneous injection, plasma PTH(1-34); assay type: in vivo, human
# Description: A Phase I clinical study of exemplary oral formulations comprising teriparatide (parathyroid hormone (1-34)) was conducted at the Hadassah Clinical Research Center. 42 healthy volunteers were included throughout the study.
# The formulation was composed of teriparatide (200, 400, 680, 1400 or 1800 μg), SNAC (sodium 8-N-(2-hydroxybenzoyl) aminocaprylate), soybean trypsin inhibitor and magnesium stearate.
# Tablets were administered in the morning after an 8-hour overnight fast and immediately followed by 150 ml of water. At each visit a standard meal was provided 3 hours after drug administration.
# as §1, with “hormone” for “hormone(1-34) (PTH(1-34))”, “points.” for “points during each visit.”, “(predose),” for “(predose), 10 minutes,”, “15” for “15 minutes, 20”
# Oral administration of teriparatide was performed as described hereinabove at doses of 200, 400, 680, 1400 or 1800 μg. The Cmax of PTH(1-34) for each orally administered dose was compared with the Cmax of PTH(1-34) for subcutaneous injection of 20 μg teriparatide.
# [3] = tested on: cAMP, a known marker of PTH activity; test: Plasma cAMP levels after oral or subcutaneous teriparatide; assay type: in vivo, human
# Description: In addition, plasma levels of cAMP, a known marker of PTH activity, were determined in order to confirm biological activity of administered PTH. cAMP plasma levels were measured following oral administration of 680 μg teriparatide or subcutaneous injection of 20 μg teriparatide, as described hereinabove.
# [4] = Pharmacokinetic study of oral teriparatide tablet with water or sodium bicarbonate solution; assay type: in vivo, human; conditions: oral tablet 0.75 mg with 150 ml of 3 mg/ml sodium bicarbonate solution
# Description: An open label comparative pharmacokinetic study was performed on ten healthy volunteers. On different visits, each volunteer received the same oral tablet containing 0.75 mg of teriparatide, a recombinant form of parathyroid hormone (1-34) (PTH(1-34)). In the first visit, the tablet was administered with 150 ml water, whereas in the second visit the tablet was administered with 150 ml of 3 mg/ml sodium bicarbonate aqueous solution.
# The formulation was composed of teriparatide (0.75 mg), SNAC (sodium 8-N-(2-hydroxybenzoyl) aminocaprylate), soybean trypsin inhibitor (SBTI) and a small amount of magnesium stearate.
# Tablets were administered in the morning after an 8-hour overnight fast. At each visit a standard meal was provided 3 hours after drug administration. […] There was a two week period between the two visits.
# To determine PTH(1-34) concentrations, blood samples were drawn and PTH(1-34) levels were measured using an IDS-iSYS automated assay, using procedures described in Example 1 hereinabove. Relative absorption was determined based on the AUC (area under curve) parameter.
# [5] = Dissolution test of tablets in simulated gastric buffer, released SNAC by HPLC; assay type: physicochemical; conditions: tablet with 100 mg sodium bicarbonate vs tablet without; simulated gastric buffer pH 2.0, 37° C.
# Description: The tablets were in a form of a homogeneous mixture.
# Each tablet formulation was subjected to a dissolution test in 100 ml of simulated gastric buffer (without pepsin), pH 2.0, at 37° C., according to USP 23 Apparatus 2 (paddle) with 50 rotations per minute. The amount of released SNAC in each sample was determined chromatographically, using an HPLC apparatus with Cosmosil™ 5 C18-MS-II (4.6 ID×250 mm) column. Mobile phase consisted of 50% acetonitrile and 50% phosphoric acid solution (0.1%). Flow rate was 1 ml/minute and injection volume was 25 μl. Amount of released SNAC was calculated as a percentage of the amount of SNAC in the formulation.
smiles,measurement,setting,value
CC[C@H](C)[C@H](NC(=O)[C@H](CCC(=O)O)NC(=O)[C@H](CO)NC(=O)[C@@H](NC(=O)[C@@H](N)CO)C(C)C)C(=O)N[C@@H](CCC(N)=O)C(=O)N[C@@H](CC(C)C)C(=O)N[C@@H](CCSC)C(=O)N[C@@H](Cc1cnc[nH]1)C(=O)N[C@@H](CC(N)=O)C(=O)N[C@@H](CC(C)C)C(=O)NCC(=O)N[C@@H](CCCCN)C(=O)N[C@@H](Cc1cnc[nH]1)C(=O)N[C@@H](CC(C)C)C(=O)N[C@@H](CC(N)=O)C(=O)N[C@@H](CO)C(=O)N[C@@H](CCSC)C(=O)N[C@@H](CCC(=O)O)C(=O)N[C@@H](CCCN=C(N)N)C(=O)N[C@H](C(=O)N[C@@H](CCC(=O)O)C(=O)N[C@@H](Cc1c[nH]c2ccccc12)C(=O)N[C@@H](CC(C)C)C(=O)N[C@@H](CCCN=C(N)N)C(=O)N[C@@H](CCCCN)C(=O)N[C@@H](CCCCN)C(=O)N[C@@H](CC(C)C)C(=O)N[C@@H](CCC(N)=O)C(=O)N[C@@H](CC(=O)O)C(=O)N[C@H](C(=O)N[C@@H](Cc1cnc[nH]1)C(=O)N[C@@H](CC(N)=O)C(=O)N[C@@H](Cc1ccccc1)C(=O)O)C(C)C)C(C)C [teriparatide],Tmax,"[1]; subject A, fasted, plasma PTH(1-34), read-out: Tmax after 1st administration (converted)",15 min
same,Tmax,"[1]; subject A, two weeks after 1st, read-out: Tmax after 2nd administration (converted)",20 min
same,Tmax,"[1]; subject B, fasted, plasma PTH(1-34), read-out: Tmax after 1st administration (converted)",10 min
same,Tmax,"[1]; subject B, two weeks after 1st, read-out: Tmax after 2nd administration (converted)",20 min
same,Tmax,"[1]; subject C, fasted, plasma PTH(1-34), read-out: Tmax after 1st administration (converted)",10 min
same,Tmax,"[1]; subject C, two weeks after 1st, read-out: Tmax after 2nd administration (converted)",20 min
same,time for plasma levels to return to baseline levels after tablet administration,[1]; oral tablet 0.75 mg,≤ 60 min
same,Cmax between different administrations in a given subject,"[1]; oral tablet 0.75 mg, two administrations two weeks apart",relatively constant
same,Cmax after 1st administration,"[1]; subject A, fasted, plasma PTH(1-34)",195 picogram/ml
same,Cmax after 2nd administration,"[1]; subject A, two weeks after 1st",283 picogram/ml
same,Cmax after 1st administration,"[1]; subject B, fasted, plasma PTH(1-34)",124 picogram/ml
same,Cmax after 2nd administration,"[1]; subject B, two weeks after 1st",116 picogram/ml
same,Cmax after 1st administration,"[1]; subject C, fasted, plasma PTH(1-34)",35 picogram/ml
same,Cmax after 2nd administration,"[1]; subject C, two weeks after 1st",36 picogram/ml
same,decline of PTH levels following oral administration compared with subcutaneous administration,[2]; oral 1800 μg vs subcutaneous 20 μg,declined considerably more rapidly
same,"Cmax of PTH(1-34) following oral administration, relation to dose","[2]; oral 200, 400, 680, 1400 or 1800 μg",proportional to the dose
same,oral dose providing a Cmax equivalent to subcutaneous administration of 20 μg teriparatide,[2]; oral tablet with SNAC and soybean trypsin inhibitor,roughly 750 μg
same,plasma cAMP levels,[3]; oral administration of 680 μg,increased plasma cAMP levels to a similar degree
same,plasma cAMP levels,[3]; subcutaneous administration of 20 μg,increased plasma cAMP levels to a similar degree
same,increase of absorption (AUC) in comparison with co-administration with water,[4],about 35%
"O=C(O)CCCCCCCNC(=O)c1ccccc1O [SNAC, sodium 8-N-(2-hydroxybenzoyl)aminocaprylate]",dissolution (release) of SNAC from tablet,[5],considerably enhanced the dissolution
